Reference: patent US20020107209A1, “Triterpene saponins from soybeans for treating kidney disease” (priority 2000, published 2002)

Legend:
[1] = system: rodent models of polycystic kidney disease (PKD); experiment: Casein-based diet supplemented with crude saponin-enriched alcohol extract (SEAE), ginseng, genistein or L-arginine; earlier experiment; format: in vivo, mice; settings: supplementation of the casein-based diet
Text: These beneficial effects appeared unique to the saponins derived from soybeans as supplementation of the casein-based diet with (1) ginseng (also a saponin), (2) genistein, (an isoflavone naturally present in SPI) or (3) addition of the amino acid L-arginine to the casein to mimic the amino acid composition to that of the SPI had no effect on disease progression.
The major component of the SEAE was identified as soyasaponin Bb with smaller amounts of two or three unidentified saponins and trace amounts of genistein and daidzen, two naturally occurring isoflavones in soy protein. The inventors determined that the Group B soybean-derived saponins (soyasaponins), especially soyasaponin Bb, was an important contributor to the attenuation of cyst growth.

pcy mouse model of PKD = experiment: 90-day feeding trial in pcy mice: casein-based diet supplemented with Novasoy 400 or soyasaponin Bb concentrate; format: in vivo; settings: for effect on attenuation of kidney size and cyst development: pcy mouse model of PKD, summary in words
Method: Experiments were conducted with a purified soyasaponin Bb concentrate for a feeding trial in the pcy mice.
The feeding trial, which followed the acquisition of this soyasaponin Bb concentrate, explored the possibility that this concentrate was an important contributor to the attenuation of disease progression in the pcy mouse. The protocol used in this trial involved the random assignment of young, male pcy mice to one of three dietary treatments and feeding these diets for 90 days, the usual time frame in these studies. The diets used in this feeding trial were:1) an unsupplemented casein-based diet, known to increase the severity of the renal cystic disease; 2) this casein-based diet supplemented with Novasoy 400®, a new, isoflavone-enhanced product containing low levels of the soyasaponins (ADM, Decatur, Ill.) or 3) the casein-based diet supplemented with the purified soyasaponin Bb concentrate prepared by Drs. Collins and Sarr.
After three months the mice were humanely euthanized and the kidney and liver tissues removed and stored at −80 degrees Celsius until measurements of tissue water content and cell volume could be taken. Organ water content was determined in the kidney and liver by measuring the difference between the wet weight of the tissue and its subsequent weight after freeze-drying. Plasma, obtained by centrifugation of the cardiac blood, was used for standard measurements of renal function, including total protein, urea, and creatinine concentrations. Soy protein fractions enriched in the soyasaponins are reportedly hypocholesterolemic when fed to hamsters (Gatchalian-Yee M. et al. Nutrition. 13:633-639,1997) and plasma cholesterol levels were also measured in the present experiment whenever the sample volume was adequate. Differences between treatment effects were assessed by a one-way ANOVA and the significance of these differences between means obtained by the Tukey's Honestly Significant Different Test.

[2] = pcy mice, 90 days, plasma from cardiac blood, mean ± SEM
[3] = pcy mice, 90 days, versus casein
[4] = pcy mice, 90 days, versus unsupplemented casein diet
[5] = pcy mice, diet fed 90 days, mean ± SEM
[6] = pcy mice, diet fed 90 days, mean ± SEM, 8 animals/group

In the case of `O=c1c(-c2ccc(O)cc2)coc2cc(O)cc(O)c12` [genistein], the “effect on disease progression” value [1] is reported as “no effect”.

`N=C(N)NCCC[C@H](N)C(=O)O` [L-arginine] was tested, and the “effect on disease progression” value [1] was “no effect”.

For `C[C@@H]1O[C@@H](O[C@H]2[C@H](O[C@H]3[C@H](O[C@H]4CC[C@@]5(C)[C@@H](CC[C@]6(C)[C@@H]5CC=C5[C@@H]7CC(C)(C)C[C@@H](O)[C@]7(C)CC[C@]56C)[C@@]4(C)CO)O[C@H](C(=O)O)[C@@H](O)[C@@H]3O)O[C@H](CO)[C@H](O)[C@@H]2O)[C@H](O)[C@H](O)[C@H]1O` [soyasaponin Bb, 3-O-(α-L-rhamnosyl-1→2-β-D-galactosyl-1→2-β-D-glucuronosyl)-soyasapogenol B], the daily food intake (pcy mouse model of PKD; pcy mice, 90-day feeding trial) was 3.3 ± 0.0 g/day, the Plasma cholesterol (pcy mouse model of PKD; [2]) was 4.8 ± 0.3 mM/L and the Plasma creatinine (pcy mouse model of PKD; [2]) was 17.5 ± 1.9 µM. For the same molecule, the Plasma total protein (pcy mouse model of PKD; [2]) was 54.3 ± 1.1 g/L, the Plasma urea (pcy mouse model of PKD; [2]) was 19.5 ± 3.0 mM/L and the “absolute and relative kidney weight and kidney water content” value (pcy mouse model of PKD; [3]) was “marked reduction”. The “relative liver weight” value (pcy mouse model of PKD; [3]) was “not observed”, the “plasma cholesterol levels” value (pcy mouse model of PKD; [4]) was “lesser hypocholesterolemic effect” and the “plasma creatinine levels” value (pcy mouse model of PKD; [4]) was “markedly reduced”. The “Kidney water content (g/left kidney)” value (pcy mouse model of PKD; pcy mice, 90 days, wet weight minus freeze-dried weight, mean ± SEM) was 0.61 ± 0.1 g/left kidney, the Final body wt (pcy mouse model of PKD; [5]) was 25.1 ± 0.1 g and the Liver water content (pcy mouse model of PKD; [5]) was 0.82 ± 0.0 g. For the same molecule, the Liver wt (pcy mouse model of PKD; [5]) was 1.2 ± 0.2 g, the “Liver wt (g/100 g body wt)” value (pcy mouse model of PKD; [5]) was 4.6 ± 0.1 g/100 g body wt and the Total kidney wt (pcy mouse model of PKD; [6]) was 1.3 ± 0.1 g. For the same molecule, the “Total kidney wt (g/100 g body wt)” value (pcy mouse model of PKD; [6]) was 5.2 ± 0.3 g/100 g body wt, the “effect on attenuation of kidney size and cyst development” value (pcy mouse model of PKD) was “important beneficial effect” and the “effect on attenuation of kidney size and cyst development” value (pcy mouse model of PKD; listed as soyasaponin Bb concentrate) was “marked beneficial effect”.
